Source: patent US20030220361A1, “Nicotinamide derivatives and a tiotropium salt in combination for the treatment of diseases” (priority 2002, published 2003)

Each compound was assayed on TNFα release from human peripheral blood mononuclear cells (assay: Inhibition of LPS-stimulated TNFα release from human peripheral blood mononuclear cells (TNFα screen)). Conditions: human PBMC, LPS stimulation, 18 hours incubation, TNFα in supernatant by ELISA.
Type: cell-based
Experimental: Venous blood is collected from healthy volunteers and the mononuclear cells purified by centrifugation through Histopaque (Ficoll) cushions. TNFα production from these cells is stimulated by addition of lipopolysaccharide. After 18 hours incubation in the presence of LPS, the cell supernatant is removed and the concentration of TNFa in the supernatant determined by ELISA. Addition of PDE4 inhibitors reduces the. amount of TNFQ produced. An IC50 is determined which is equal to the concentration of compound that gives 50% inhibition TNFα production as compared to the LPS stimulated control wells.
An IC50 of 2.1 nM was found for O=C(N[C@H]1CC[C@@H](C(=O)NCc2ccc(O)cc2F)CC1)c1cccnc1Oc1ccc(F)cc1 [Example 173, Syn-N-[4-(2-Fluoro-4-hydroxy-benzyl-carbamoyl)-cyclohexyl]-2-(4-fluoro-phenoxy)-nicotinamide] in this work.
An IC50 of 0.15 nM was found for O=C(N[C@H]1CC[C@@H](NC(=O)c2c(O)cccc2O)CC1)c1cc(F)cnc1Oc1ccc(F)c(F)c1 [Example 178] in this work.
An IC50 of 21 nM was found for COC(=O)c1cccc(C(=O)N[C@H]2CC[C@@H](NC(=O)c3cc(F)cnc3Oc3ccc(F)cc3)CC2)n1 [Example 123] in this work.
An IC50 of 0.2 nM was found for Cc1ccc(O)c(C(=O)NC2CCC(NC(=O)c3cc(F)cnc3Oc3cccc(F)c3)CC2)c1 (stereo not shown) [Example 213] in this work.
